Laboratory results: patent US8501816B2, “Antitussive compositions comprising memantine” (Cerecor, Inc., priority 2010, dated 2013)
“Also recorded” adds a separate entry of the source. Marks after values point to notes of the source that are not given here.

Tests used:
[1] = system: bradykinin induced cough; assay: Bradykinin induced cough in conscious guinea pigs; assay type: in vivo, guinea pig
Procedure: (§1) Using a similar chamber and nebulizer system, animals were treated first with aerosolized peptidase inhibitors (captopril 0.1 μM and thiorphan 0.1 μM, 5 minutes nebulization) to reduce bradykinin degradation and enhance tussive responses evoked by bradykinin (unpublished observations). Animals were then exposed to increasing concentrations of aerosolized bradykinin (0.1-3 mg/mL), again for 5 minute periods. Coughs are counted during this and the subsequent 5 minutes. Pressure changes within the chamber are used to monitor respiratory rate (Biopac Systems Inc, Goleta, Calif.).

[2] = Respiratory parameters during cough challenge; assay type: in vivo, guinea pig; details: 10 mg/kg memantine, p=0.012
Procedure: as §1

[3] = Pharmacokinetics of memantine with sodium hydroxide, menthol and NH4Cl in male beagle dogs (Example 3); assay type: in vivo, beagle dog; details: MMT 0.4 mg/kg; for Cmax/Dose: Route Oral; for AUC(0-inf) / AUC(0-t) / Cmax / Tmax / half-life: male, beagle, dog, plasma, po, 0.4 mg/kg
[4] = system: porcine buccal mucosa; assay: Memantine ex vivo buccal permeability; assay type: in vitro ADME
[5] = system: freezing behavior during cued fear conditioning; assay: Cued fear conditioning in mice; assay type: in vivo
Procedure: The effects of memantine on enhancing cognition were investigated with fear conditioning tests on mice. Specifically, the fear conditioning test exposed mice to a conditioned stimulus (a tone) and an unconditioned stimulus (a mild electric shock). The mice learned to associate the tone with the shock as reflected by freezing. After being adequately conditioned, the mice were administered memantine or a control (vehicle alone). […] Fear Conditioning: Fear conditioning mouse chambers (7''W×7''D×12''H; Coulbourne Instruments, […] Valley, Pa.) were housed in sound attenuating chambers. A camera was mounted on the ceiling of the chamber to capture mouse behavior (FreezeFrame software, Coulbourne Instruments, […] Valley, Pa.); data were analyzed by Freezeview software (Coulbourne Instruments, […] Valley, Pa.). Fear conditioning chambers were calibrated prior to each experiment to ensure that each chamber delivers the same shock intensity. […] Pavlovian fear conditioning refers to the learning of associations between a negative reinforcer (e.g., a mild electric foot shock/s), a novel context (e.g. a context) and/or a specific, neutral, cue (e.g., tone or white noise). To assess contextual and cued (tone) learning and memory, a standardized fear conditioning task developed for the evaluation of memory in rodents was used. Protocol: […] Cue-induced Conditioning Testing: Mice were tested for cued memory 48 hours after training. The cued conditioning test was conducted in an altered context (i.e., a different test chamber). […] Statistical Analysis: Data are represented as the mean and standard error to the mean. Data were analyzed by analysis of variance (ANOVA) followed by Fisher PLSD, or unpaired t-tests, when appropriate to test a planned comparison. An effect was considered significant if p<0.05. Statistical outliers that fell above or below two standard deviations from the mean were removed from the final analysis.

[6] = around pH 6.0; cited from earlier work
[7] = treated for dementia, recent review; cited from earlier work
[8] = system: histamine neuron activity; details: cited from earlier work
[9] = system: sigma receptor; details: cited from earlier work
[10] = cited from earlier work
[11] = system: citric acid induced cough; assay: Citric acid induced cough in conscious guinea pigs; details: for ≧15 Cumulative coughs/total number of guinea pigs: 1 hour pre-citric acid challenge; for Cumulative coughs evoked by citric acid, 0.1M Citric Acid / Cumulative coughs evoked by citric acid, 0.3M Citric Acid: MMT 10 mg/kg intraperitoneal
Procedure: Male Hartley guinea pigs (200-700 g) were studied and all experiments were first approved by the institutional Animal Care and Use Committee.
Animals were placed in a transparent chamber (Buxco Research Systems, Wilmington, N.C.) with a continuous flow of air and exposed to increasing concentrations of citric acid (0.01 M-0.3 M) is delivered by an ultrasonic nebulizer generating aerosol particles of 3-6 μm diameter. Coughs were counted during a 5 minute nebulization period and over the subsequent 5 minutes with the assistance of sound and pressure monitoring from the chamber. Respiratory rate and tidal volume were monitored throughout via a calibrated pressure transducer (Emka Technologies, Falls Church, Va.).
Each of these drugs was administered orally in half-log increments (e.g. 3 mg/kg, 10 mg/kg, 30 mg/kg) in an unpaired experimental design (each animal received only 1 dose of drug). The drugs were administered 60 minutes prior to citric acid challenge, which consisted of 5 minute challenges with aerosols of increasing concentrations of citric acid (0.01-0.3M), with 5 minute intervals in between escalating doses of the tussive stimulus.

[12] = 3.3 mg/ml sodium hydroxide + 5 mg/ml menthol
[13] = 3.3 mg/ml sodium hydroxide + 5 mg/ml menthol + 20 mg/kg NH4Cl
[14] = 3.3 mg/ml sodium hydroxide + 5 mg/ml menthol + 30 mg/kg NH4Cl

Question: For `CC12CC3CC(C)(C1)CC(N)(C3)C2` [Memantine, 3,5-dimethyltricyclo[3.3.1.1^3,7]decan-1-amine], which “Effect on number of coughs evoked by bradykinin aerosols compared to control” value ([1]; FIG. 4, p<0.01) is on record?
Answer: significantly reduced the number of coughs evoked by bradykinin

Question: What about the “Cumulative coughs, 0.3M bradykinin challenge” value ([1]; MMT 3 mg/kg i.p. 1 hour pre-bradykinin challenge) of the same compound?
Answer: 20 ± 5

Question: And the “Cumulative coughs, 0.3M bradykinin challenge” value ([1]; MMT 10 mg/kg i.p. 1 hour pre-bradykinin challenge)?
Answer: 1.3±0.8

Question: What about the “Cumulative coughs, 0.3M bradykinin challenge” value ([1]; MMT 10 mg/kg i.p. 1 hour pre-bradykinin challenge, listed as MMT) of the same compound?
Answer: 1.3 ± 0.8

Question: And the “cumulative number of coughs evoked by 0.1-3 mg/mL bradykinin, median” value ([1]; memantine 10 mg/kg, controls 16 coughs)?
Answer: 0.0 coughs

Question: And the “Change of breathing frequency induced by bradykinin” value [2]?
Answer: small increase in breathing frequency

Question: What about the Cmax/Dose [3, 12] of the same compound?
Answer: 18.16

Question: And the Cmax/Dose [3, 13]?
Answer: 26.03

Question: And the Cmax/Dose [3, 14]?
Answer: 9.18

Question: What about the Cmax/Dose ([3]; Control) of the same compound?
Answer: 7.91

Question: And the AUC(0-inf) [3, 12]?
Answer: 126 ng·h/mL

Question: What about the AUC(0-t) [3, 12] of the same compound?
Answer: 113 ng·h/mL

Question: What about the Cmax [3, 12] of the same compound?
Answer: 77 ng/mL

Question: And the Tmax [3, 12]?
Answer: 0.2 h

Question: What about the half-life [3, 12] of the same compound?
Answer: 5.05 h

Question: And the AUC(0-inf) [3, 13]?
Answer: 143 ng·h/mL

Question: What about the AUC(0-t) [3, 13] of the same compound?
Answer: 134 ng·h/mL

Question: And the Cmax [3, 13]?
Answer: 126 ng/mL

Question: And the Tmax [3, 13]?
Answer: 0.15 h

Question: And the half-life [3, 13]?
Answer: 4.6 h

Question: And the AUC(0-inf) [3, 14]?
Answer: 125 ng·h/mL

Question: And the AUC(0-t) [3, 14]?
Answer: 103 ng·h/mL

Question: And the Cmax [3, 14]?
Answer: 43 ng/mL

Question: And the Tmax [3, 14]?
Answer: 0.25 h

Question: And the half-life [3, 14]?
Answer: 4.33 h

Question: And the AUC(0-inf) ([3]; Control)?
Answer: 132 ng·h/mL

Question: What about the AUC(0-t) ([3]; Control) of the same compound?
Answer: 120 ng·h/mL

Question: What about the Cmax ([3]; Control) of the same compound?
Answer: 34.5 ng/mL

Question: What about the Tmax ([3]; Control) of the same compound?
Answer: 0.75 h

Question: And the half-life ([3]; Control)?
Answer: 7.18 h

Question: And the “increase in permeability of memantine” value ([4]; increase in pH from 5.5 to 9.0)?
Answer: over 100 fold

Question: What about the “increase in permeability of memantine” value ([4]; increase in pH from 8.0 to 9.0) of the same compound?
Answer: about 3.8 fold

Question: And the “cue-induced fear conditioning, CS phase, vs vehicle-diphenhydramine 20 mg/kg” value ([5]; memantine 10 mg/kg IP + diphenhydramine 20 mg/kg)?
Answer: significantly increased cue-induced fear conditioning

Question: And the “post-CS freezing vs vehicle-diphenhydramine” value ([5]; memantine 20 mg/kg plus diphenhydramine)?
Answer: strong trend (p=0.052) toward a significant increase in post-CS freezing

Question: And the ionization [6]?
Answer: completely ionized

Question: What about the “adverse effects reported, share of those treated” value [7] of the same compound?
Answer: < 10%

Question: And the “ED50 of t-MeHA increase” value ([8]; acute administration)?
Answer: 0.3 ± 0.1 mg/kg

Question: What about the “increase of tele-methylhistamine (t-MeHA) levels in the brain” value ([8]; acute administration) of the same compound?
Answer: 60%

Question: And the “t-MeHA levels enhanced by” value ([8]; two days after 5 mg/kg twice daily for 5 days)?
Answer: 50±7%

Question: And the interaction with receptor [9]?
Answer: does not interact

Question: And the “plasma memantine concentrations at steady state” value ([10]; conventional memantine dosage forms)?
Answer: 70 to 150 ng/mL

Question: What about the Total renal clearance ([10]; healthy volunteers) of the same compound?
Answer: approximately 170 mL/min/1.70 m^2

Question: And the “bound to plasma proteins” value ([10]; in vivo)?
Answer: about 45%

Question: And the “mean volume of distribution” value ([10]; in vivo)?
Answer: about 10 L/kg

Question: What about the bioavailability ([10]; oral, conventional memantine) of the same compound?
Answer: > 100%

Question: What about the “≧15 Cumulative coughs/total number of guinea pigs” value (“≧15 Cumulative coughs/total number” for short) ([11]; 0.01 mg/kg po) of the same compound?
Answer: 2/5

Question: What about the “≧15 Cumulative coughs/total number” value ([11]; 0.1 mg/kg po) of the same compound?
Answer: 1/5

Question: What about the “Cumulative numbers of cough, median, citric acid 0.01M” value ([11]; 1 mg/kg intraperitoneally) of the same compound?
Answer: 0.0

Question: What about the “Cumulative numbers of cough, median, citric acid 0.1M” value (“Cumulative numbers … citric acid 0.1M” for short) ([11]; 1 mg/kg intraperitoneally) of the same compound?
Answer: 5.0

Question: What about the “Cumulative numbers of cough, median, citric acid 0.3M” value (“Cumulative numbers … citric acid 0.3M” for short) ([11]; 1 mg/kg intraperitoneally) of the same compound?
Answer: 14.0

Question: What about the “≧15 Cumulative coughs/total number” value ([11]; 1 mg/kg po) of the same compound?
Answer: 2/7

Question: What about the “Cumulative numbers of cough, median, citric acid 0.01M” value ([11]; 3 mg/kg intraperitoneally) of the same compound?
Answer: 0.0

Question: What about the “Cumulative numbers … citric acid 0.1M” value ([11]; 3 mg/kg intraperitoneally) of the same compound?
Answer: 3.0

Question: And the “Cumulative numbers … citric acid 0.3M” value ([11]; 3 mg/kg intraperitoneally)?
Answer: 24.5

Question: What about the “≧15 Cumulative coughs/total number” value ([11]; 3 mg/kg po) of the same compound?
Answer: 0/5

Question: And the “Cumulative numbers of cough, median, citric acid 0.01M” value ([11]; 10 mg/kg intraperitoneally)?
Answer: 0.0

Question: What about the “Cumulative numbers … citric acid 0.1M” value ([11]; 10 mg/kg intraperitoneally) of the same compound?
Answer: 0.0

Question: What about the “Cumulative numbers … citric acid 0.3M” value ([11]; 10 mg/kg intraperitoneally) of the same compound?
Answer: 1.5*

Question: What about the “Effect on cumulative number of coughs evoked by citric acid (0.01-0.3M) compared to controls” value ([11]; 10 mg/kg intraperitoneally) of the same compound?
Answer: significantly reduced the cumulative number of coughs; also recorded: markedly reduced the number of cumulative coughs

Question: What about the “≧15 Cumulative coughs/total number” value ([11]; 10 mg/kg po) of the same compound?
Answer: 0/7

Question: What about the “Cumulative numbers of cough, median, citric acid 0.01M” value ([11]; 30 mg/kg intraperitoneally) of the same compound?
Answer: 0.0

Question: What about the “Cumulative numbers … citric acid 0.1M” value ([11]; 30 mg/kg intraperitoneally) of the same compound?
Answer: 0.0*

Question: And the “Cumulative numbers … citric acid 0.3M” value ([11]; 30 mg/kg intraperitoneally)?
Answer: 1.5*

Question: And the “Effect on cumulative number of coughs evoked by citric acid (0.01-0.3M) compared to controls” value ([11]; 30 mg/kg intraperitoneally)?
Answer: significantly reduced the cumulative number of coughs; also recorded: similarly reduced cough responses

Question: And the “≧15 Cumulative coughs/total number” value ([11]; 30 mg/kg po)?
Answer: 0/4

Question: What about the “Effect on cumulative coughs evoked by citric acid over vehicle” value ([11]; 1 and 3 mg/kg) of the same compound?
Answer: no significant effect

Question: What about the “Cumulative coughs evoked by citric acid, 0.1M Citric Acid” value ([11]; 0.5 hr pre-challenge) of the same compound?
Answer: 2 ± 2

Question: And the “Cumulative coughs evoked by citric acid, 0.3M Citric Acid” value ([11]; 0.5 hr pre-challenge)?
Answer: 5 ± 3

Question: And the “Cumulative coughs evoked by citric acid, 0.1M Citric Acid” value ([11]; 1 hr pre-challenge)?
Answer: 1 ± 1

Question: And the “Cumulative coughs evoked by citric acid, 0.3M Citric Acid” value ([11]; 1 hr pre-challenge)?
Answer: 7 ± 3

Question: And the “Cumulative coughs evoked by citric acid, 0.1M Citric Acid” value ([11]; 2 hr pre-challenge)?
Answer: 0 ± 0

Question: And the “Cumulative coughs evoked by citric acid, 0.3M Citric Acid” value ([11]; 2 hr pre-challenge)?
Answer: 7 ± 4

Question: And the “Cumulative coughs evoked by citric acid, 0.1M Citric Acid” value ([11]; 4 hr pre-challenge)?
Answer: 6 ± 5

Question: What about the “Cumulative coughs evoked by citric acid, 0.3M Citric Acid” value ([11]; 4 hr pre-challenge) of the same compound?
Answer: 15 ± 6

Question: What about the “Levels of cough, oral compared to parenteral administration” value ([11]; doses of 1 mg/kg or more (FIG. 8)) of the same compound?
Answer: substantially reduced levels of cough compared to parenterally administered memantine

Question: And the “time to the first cough during the citric acid challenge” value ([11]; memantine 10 mg/kg vs vehicle, p=0.007)?
Answer: shorter for vehicle than memantine 10 mg/kg

Question: And the “Effect of single agent on citric acid (0.01-0.3M) induced cough” value ([11]; oral, 60 minutes prior, memantine 3, guaifenesin 100, diphenhydramine 10, benzonatate 30, ambroxol 100 mg/kg)?
Answer: failed to inhibit cough

Question: And the “Percentage of animals coughing ≧15 times, effect relative to controls” value ([11]; orally, doses around 0.1-1 mg/kg (FIG. 7))?
Answer: reduces cough relative to controls
